Experimental data: patent US20230241024A1, “METHODS OF TREATING METABOLIC DISORDERS” (Sunovion Pharmaceuticals Inc., priority 2021, published 2023)

Key:
[1] = test system: lean, fasted, male CD1 mice; assay: Acute intravenous glucose tolerance test (IVGTT), plasma glucose and insulin (Example 6)
Description: (§1) A vehicle control group was included in the study design. […] Blood samples were taken at various timepoints during the test and subsequently assessed for plasma glucose and insulin content.
Via a lateral tail vein, a baseline blood sample (B1; 30 µl) was taken from all animals prior to vehicle or drug treatment. Five minutes later, mice were dosed with Treatment 1 detailed by the oral route (see above table; approx. 30 minutes pre-glucose). Thirty minutes later, mice were dosed with Treatment 2 by the intravenous route (by a lateral tail vein). […] A B2 sample (30 µl) was also taken briefly before glucose administration. All blood samples (from the tail vein) were collected into lithium heparinised tubes (Sarstedt Microvette CB300LH) and plasma separated by centrifugation to produce a single aliquot of plasma which was frozen (approx. -80° C.) and subsequently assayed for glucose (Thermoelectron infinity glucose reagent, TR15421) and insulin (Alpco Ultrasensitive mouse insulin ELISA) as single replicates.

lean male C57BL/6J mice = assay: Acute oral glucose tolerance test (OGTT), plasma glucose and insulin, lean mice (Example 1.1); design: Plasma glucose AUC Mean: dose or concentration left out as unconfirmed
Description: as §1
Mice were weighed on the day of arrival (Thursday) and singly housed upon arrival and throughout the study in polypropylene cages on a normal phase 12 h light-dark cycle (lights on 07:00). Cages contained sawdust, red acrylic house, red acrylic tunnel, sizzlenest and nestlet at a temperature of 21±4° C. Upon arrival, mice were weighed and given wet mash to aid recovery from transport. Mice were weighed the following day and on the Monday of the following week.
Experimental Procedures: Animals underwent a three-day handling phase, which commenced five days after arrival. On the final day of handling the mice were dosed orally once with vehicle. At the start of the handling phase, animals were weighed (to the nearest 0.1 g using an electronic top-pan balance) and allocated into 6 weight-matched treatment groups by a Statistician. On the day of baseline dosing, mice were fasted for approximately 16 hours to a timed schedule, beginning at 16:45. The mice were placed into individual clean cages with access to water, but not food. The following morning the mice were moved to a separate room which was maintained with the same environmental conditions and underwent an OGTT. […] Five minutes later, the mice in groups A, C, D, E and F were dosed by the oral route (30 minutes pre-glucose). […] All mice were given an oral glucose load of D-glucose at a dose of 2.0 g/kg (400 mg/mL solution; dose volume 5 mL/kg). Further blood samples (30 µl) were taken 3 minutes before glucose administration (B2) and at 15 (20 µl), 30 (20 µl), 60 (25 µl) and 120 (25 µl) minutes post glucose administration. All blood samples were collected into lithium heparinised tubes (Sarstedt Microvette CB300LH) and plasma separated by centrifugation to produce a single aliquot of plasma which was frozen (-80° C.) and subsequently assayed for glucose (Thermoelectron infinity glucose reagent, TR15421) and insulin (Alpco mouse ultrasensitive insulin kit 80 INSMSU-E10).
Upon completion of the OGTT, all animals were humanely killed by a Schedule 1 method (exposure to a rising concentration of CO2 with confirmation of death by cervical dislocation). A terminal blood sample was taken from groups A, C, D, E and F only by cardiac puncture into a lithium heparin-coated tube (Sarstedt CB300LH) and the plasma separated by centrifugation.

male db/db mice = assay: Acute oral glucose tolerance test (OGTT), plasma glucose and insulin, diabetic db/db mice (Example 1.2)
Description: as §1
Mice were weighed on the day of arrival (Thursday) and group housed in polypropylene cages on a normal phase 12 h light-dark cycle (lights on 07:00). Cages contained sawdust, red house, red tunnel, Sizzlenest and nestlet at a temperature of 24±2° C. Upon arrival, mice were weighed and given wet mash to aid recovery from transport. Mice were weighed the following day and on the Monday of the following week.
Experimental Procedures: Animals underwent a three-day handling phase, which commenced five days after arrival. On the final day of handling the mice were dosed orally once with vehicle. At the start of the handling phase, animals were weighed (to the nearest 0.1 g using an electronic top-pan balance) and allocated into 6, weight matched treatment groups by a Statistician. On the day of baseline dosing, mice were fasted for approximately 16 hours to a timed schedule, beginning at 16:45. The mice were placed into individual clean cages with access to water, but not food. The following morning the mice were moved to a separate room which was maintained with the same environmental conditions and underwent an OGTT. […] Five minutes later, the mice in groups A, C, D, E and F were dosed by the oral route (30 minutes pre-glucose). […] All mice were given an oral glucose load of D-glucose at a dose of 2.0 g/kg (400 mg/mL solution; dose volume 5 mL/kg). Further blood samples (30 µl) were taken 3 minutes before glucose administration (B2) and at 15 (20 µl), 30 (20 µl), 60 (25 µl) and 120 (25 µl) minutes post glucose administration. All blood samples were collected into lithium heparinised tubes (Sarstedt Microvette CB300LH) and plasma separated by centrifugation to produce a single aliquot of plasma which was frozen (-80° C.) and subsequently assayed for glucose (Thermoelectron infinity glucose reagent, TR15421) and insulin (Alpco mouse ultrasensitive insulin kit 80 INSMSU-E10).
Upon completion of the OGTT, all animals were humanely killed by a Schedule 1 method (exposure to a rising concentration of CO2 with confirmation of death by cervical dislocation). A terminal blood sample was taken from groups A, C, D, E and F only by cardiac puncture into a lithium heparin-coated tube (Sarstedt CB300LH) and the plasma separated by centrifugation. A single plasma aliquot (approximately 100 µl) was stored frozen prior to shipment of the compound to Charles River Laboratories, USA.

[2] = 40 µg/kg iv group, Post-treatment baseline (B2)
[3] = 40 µg/kg iv with Glucose 1 g/kg
[4] = 40 µg/kg iv with Glucose 1 g/kg, 5 minutes
[5] = 40 µg/kg iv with Glucose 1 g/kg, 10 minutes
[6] = 40 µg/kg iv with Glucose 1 g/kg, 30 minutes
[7] = 40 µg/kg iv with Glucose 1 g/kg, 60 minutes
[8] = 15 minutes, Exendin-4 1 µg/kg ip
[9] = 30 minutes, Exendin-4 1 µg/kg ip
[10] = 60 minutes, Exendin-4 1 µg/kg ip
[11] = 120 minutes, Exendin-4 1 µg/kg ip
[12] = AUC above baseline (0-60 minutes), Exendin-4 1 µg/kg ip
[13] = AUC above baseline (0-120 minutes), Exendin-4 1 µg/kg ip
[14] = Area under curve (0-60 minutes), Exendin-4 1 µg/kg ip
[15] = Area under curve (0-120 minutes), Exendin-4 1 µg/kg ip
[16] = Area under curve (0-120 minutes), Exendin-4 ip
[17] = Post-treatment baseline (B2), Exendin-4 1 µg/kg ip
[18] = 15 minutes, Exendin-4 300 µg/kg ip
[19] = 30 minutes, Exendin-4 300 µg/kg ip
[20] = 60 minutes, Exendin-4 300 µg/kg ip
[21] = 120 minutes, Exendin-4 300 µg/kg ip
[22] = AUC above baseline (0-60 minutes), Exendin-4 300 µg/kg ip
[23] = AUC above baseline (0-120 minutes), Exendin-4 300 µg/kg ip
[24] = Area under curve (0-60 minutes), Exendin-4 300 µg/kg ip
[25] = Area under curve (0-60 minutes), Exendin-4 300 µpg/kg ip
[26] = Area under curve (0-120 minutes), Exendin-4 300 µg/kg ip
[27] = Area under curve (0–120 minutes), Exendin-4 300 µg/kg ip
[28] = Post-treatment baseline (B2), Exendin-4 300 µg/kg ip

Exendin-4: GLP 1 receptor agonist utilised as a positive control
Plasma glucose % of vehicle [1, 2]: 98.6% | Plasma glucose Mean [1, 2]: 9.30 mM | Plasma insulin % of vehicle [1, 2]: 95.1% | Plasma insulin Mean [1, 2]: 0.17 ng/mL | Plasma glucose - AUC above baseline (AUCB2) (0-60 minutes), Mean [1, 3]: 3.22 mM·h | Plasma glucose AUC (0-60 minutes), % of vehicle [1, 3]: 73.5% | Plasma glucose AUC, Area under curve (0-60 minutes), Mean [1, 3]: 12.65 mM·h | Plasma glucose AUCB2 (0-60 minutes), Difference from vehicle [1, 3]: -4.43 mM·h | Plasma insulin - AUC above baseline (AUCB2) (0-60 minutes), Mean [1, 3]: 0.73 ng·h/mL | Plasma insulin - Area under curve AUC (0-60 minutes), Mean [1, 3]: 0.93 ng·h/mL | Plasma insulin AUC (0-60 minutes), % of vehicle [1, 3]: 218.8% | Plasma insulin AUCB2 (0-60 minutes), Difference from vehicle [1, 3]: 0.48 ng·h/mL | Plasma glucose % of vehicle [1, 4]: 92.6% | Plasma glucose Mean [1, 4]: 28.43 mM | Plasma insulin % of vehicle [1, 4]: 347.3% | Plasma insulin Mean [1, 4]: 1.99 ng/mL | Plasma glucose % of vehicle [1, 5]: 89.4% | Plasma glucose Mean [1, 5]: 22.15 mM | Plasma insulin % of vehicle [1, 5]: 327.2% | Plasma insulin Mean [1, 5]: 1.84 ng/mL | Plasma glucose % of vehicle [1, 6]: 59.0% | Plasma glucose Mean [1, 6]: 8.35 mM | Plasma insulin % of vehicle [1, 6]: 149.8% | Plasma insulin Mean [1, 6]: 0.57 ng/mL | Plasma glucose % of vehicle [1, 7]: 57.8% | Plasma glucose Mean [1, 7]: 6.36 mM | Plasma insulin % of vehicle [1, 7]: 117.2% | Plasma insulin Mean [1, 7]: 0.42 ng/mL | plasma insulin vs vehicle ([1]; Exendin-4 40 µg/kg iv, 5, 10 and 30 minutes post glucose load): statistically significant increase | Plasma insulin peak ([1]; Exendin-4 40 µg/kg iv, 5 minutes post glucose load): 1.99 ng/mL | Plasma glucose % of vehicle (lean male C57BL/6J mice; [8]): 65.9% | Plasma glucose Mean (lean male C57BL/6J mice; [8]): 15.13 mM | Plasma insulin % of vehicle (lean male C57BL/6J mice; [8]): 154.4% | Plasma insulin Mean (lean male C57BL/6J mice; [8]): 1.92 ng/mL | Plasma glucose % of vehicle (lean male C57BL/6J mice; [9]): 53.3% | Plasma glucose Mean (lean male C57BL/6J mice; [9]): 12.81 mM | Plasma insulin % of vehicle (lean male C57BL/6J mice; [9]): 110.3% | Plasma insulin Mean (lean male C57BL/6J mice; [9]): 1.10 ng/mL | Plasma glucose % of vehicle (lean male C57BL/6J mice; [10]): 58.4% | Plasma glucose Mean (lean male C57BL/6J mice; [10]): 8.56 mM | Plasma insulin % of vehicle (lean male C57BL/6J mice; [10]): 73.1% | Plasma insulin Mean (lean male C57BL/6J mice; [10]): 0.37 ng/mL | Plasma glucose % of vehicle (lean male C57BL/6J mice; [11]): 74.8% | Plasma glucose Mean (lean male C57BL/6J mice; [11]): 7.46 mM | Plasma insulin % of vehicle (lean male C57BL/6J mice; [11]): 63.5% | Plasma insulin Mean (lean male C57BL/6J mice; [11]): 0.27 ng/mL | Plasma glucose AUCB2 Difference from vehicle (lean male C57BL/6J mice; [12]): -8.32 mM·h | Plasma glucose AUCB2 Mean (lean male C57BL/6J mice; [12]): 1.49 mM·h | Plasma insulin AUC above baseline Difference from vehicle (lean male C57BL/6J mice; [12]): 0.02 ng·h/mL | Plasma insulin AUC above baseline Mean (lean male C57BL/6J mice; [12]): 0.72 ng·h/mL | Plasma glucose AUCB2 Difference from vehicle (lean male C57BL/6J mice; [13]): -12.99 mM·h | Plasma glucose AUCB2 Mean (lean male C57BL/6J mice; [13]): -0.58 mM·h | Plasma insulin AUC above baseline Difference from vehicle (lean male C57BL/6J mice; [13]): -0.28 ng·h/mL | Plasma insulin AUC above baseline Mean (lean male C57BL/6J mice; [13]): 0.76 ng·h/mL | Plasma glucose AUC % of vehicle (lean male C57BL/6J mice; [14]): 61.5% | Plasma insulin AUC % of vehicle (lean male C57BL/6J mice; [14]): 125.7% | Plasma insulin AUC Mean (lean male C57BL/6J mice; [14]): 1.06 ng·h/mL | Plasma insulin AUC % of vehicle (lean male C57BL/6J mice; [15]): 110.9% | Plasma insulin AUC Mean (lean male C57BL/6J mice; [15]): 1.48 ng·h/mL | Plasma glucose AUC % of vehicle (lean male C57BL/6J mice; [16]): 63.6% | Plasma glucose AUC Mean (lean male C57BL/6J mice; [16]): 20.44 mM·h | plasma glucose vs vehicle (lean male C57BL/6J mice; Exendin-4 1 µg/kg ip 10 minutes before glucose load, all timepoints post-glucose): statistically significant (p<0.01) reduction | Plasma glucose % of vehicle (lean male C57BL/6J mice; [17]): 111.4% | Plasma glucose Mean (lean male C57BL/6J mice; [17]): 10.66 mM | Plasma insulin % of vehicle (lean male C57BL/6J mice; [17]): 221.2% | Plasma insulin Mean (lean male C57BL/6J mice; [17]): 0.34 ng/mL | Plasma glucose % of vehicle (male db/db mice; [18]): 39.5% | Plasma glucose Mean (male db/db mice; [18]): 20.37 mM | Plasma insulin % of vehicle (male db/db mice; [18]): 176.4% | Plasma insulin Mean (male db/db mice; [18]): 11.33 ng/mL | Plasma glucose % of vehicle (male db/db mice; [19]): 34.7% | Plasma glucose Mean (male db/db mice; [19]): 19.07 mM | Plasma insulin % of vehicle (male db/db mice; [19]): 228.5% | Plasma insulin Mean (male db/db mice; [19]): 9.42 ng/mL | Plasma glucose % of vehicle (male db/db mice; [20]): 32.9% | Plasma glucose Mean (male db/db mice; [20]): 12.91 mM | Plasma insulin % of vehicle (male db/db mice; [20]): 210.5% | Plasma insulin Mean (male db/db mice; [20]): 8.95 ng/mL | Plasma glucose % of vehicle (male db/db mice; [21]): 52.4% | Plasma glucose Mean (male db/db mice; [21]): 10.71 mM | Plasma insulin % of vehicle (male db/db mice; [21]): 238.7% | Plasma insulin Mean (male db/db mice; [21]): 9.87 ng/mL | Plasma glucose AUC above baseline Difference from vehicle (male db/db mice; [22]): -28.49 mM·h | Plasma glucose AUC above baseline Mean (male db/db mice; [22]): -1.09 mM·h | Plasma insulin AUC above baseline Difference from vehicle (male db/db mice; [22]): -0.08 ng·h/mL | Plasma insulin AUC above baseline Mean (male db/db mice; [22]): 0.89 ng·h/mL | Plasma glucose AUC above baseline Difference from vehicle (male db/db mice; [23]): -47.99 mM·h | Plasma glucose AUC above baseline Mean (male db/db mice; [23]): -8.04 mM·h | Plasma insulin AUC above baseline Difference from vehicle (male db/db mice; [23]): -0.35 ng·h/mL | Plasma insulin AUC above baseline Mean (male db/db mice; [23]): 0.98 ng·h/mL | Plasma insulin AUC % of vehicle (male db/db mice; [24]): 213.0% | Plasma insulin AUC Mean (male db/db mice; [24]): 9.93 ng·h/mL | Plasma glucose AUC % of vehicle (male db/db mice; [25]): 38.8% | Plasma glucose AUC Mean (male db/db mice; [25]): 17.77 mM·h | Plasma insulin AUC % of vehicle (male db/db mice; [26]): 223.1% | Plasma insulin AUC Mean (male db/db mice; [26]): 19.34 ng·h/mL | Plasma glucose AUC % of vehicle (male db/db mice; [27]): 39.6% | Plasma glucose AUC Mean (male db/db mice; [27]): 30.22 mM·h | plasma glucose vs vehicle (male db/db mice; Exendin-4 300 µg/kg ip, all timepoints post-glucose): statistically significant (p<0.001) reduction | Plasma glucose Mean (male db/db mice; [28]): 17.81 mM | Plasma insulin % of vehicle (male db/db mice; [28]): 227.2% | Plasma insulin Mean (male db/db mice; [28]): 8.99 ng/mL
